Results reported in patent US9580487B2, “Method of treating stomach or bowel-related disorders by administering glucagon-like-peptide-2 (GLP-2) analogues” (Zealand Pharma A/S, priority 2005, dated 2017).
“Also recorded” adds a separate entry of the source. No end group written: not given here.

Experiments:
[1] = tested on: male C57BL mice; experiment: Screening for intestinal growth effects (small intestine and colon mass relative to body weight, small intestine-colon sensitivity index); type: in vivo; conditions: for Small intestine mass relative to [Gly2]GLP-2 / Preferential growth of small intestine versus colon (small intestine-colon sensitivity): 30 nmol/kg s.c. twice daily, ten days; for Small intestine mass relative to [Gly2]GLP-2: equimolar [Gly2]GLP-2; for Preferential growth of small intestine versus colon (small intestine-colon sensitivity): relative to [Gly2]GLP-2; for colon mass relative to body weight, % [Gly2]GLP-2 / small intestine-colon sensitivity index, (SI/Colon)X/(SI/Colon)[Gly2]GLP-2 %: male C57BL mice, 30 nmol/kg s.c. twice daily for ten days; for small intestine-colon sensitivity index, (SI/Colon)X/(SI/Colon)[Gly2]GLP-2 %: third value column
Summary of the method: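 Groups of six mice were dosed s.c. at 30 nmol/kg twice daily for ten days, with vehicle (PBS, pH 7.4) or equimolar [Gly2]GLP-2 as comparators. The sensitivity index was (SI/Colon) of the compound over that of [Gly2]GLP-2, with ≥1.05 counted as small-intestine-selective and ≤0.95 as colon-selective.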

[2] = tested on: C57BL mice treated with 5-Fluorouracil (5-FU); experiment: 5-FU-induced small intestinal atrophy (SI-BW, SI length) in mice; type: in vivo; conditions: for 5-FU-induced small intestine atrophy (SI-BW, SI length): 5-405 (810) nmol/kg s.c. b.i.d., 3 days prior to and 4 days with 5-FU 50 mg/kg i.p. daily; for Efficacy on SI-length compared with 405 nmol/kg [Gly2]GLP-2 / Efficacy on SI-BW compared with 405 nmol/kg [Gly2]GLP-2: 5-FU treated mice; for Efficacy on SI-BW compared with 405 nmol/kg [Gly2]GLP-2: equimolar dose; for Efficacy on 5-FU-induced atrophy compared with [Gly2]GLP-2 (figure legends): high/highest doses vs [Gly2]GLP-2 405 nmol/kg
Description: (§1) FIG. 6 is a set of graphs showing the effect of compound 1846 (SEQ ID NO:34) (5, 15, 45, 135, 405 and 810 nmol/kg, s.c., b.i.d.; n=6/dose group) on A) small intestine-to-body weight ratio (SI-BW), and B) small intestinal length (SI length) in mice treated with the cytostatic drug 5-Fluorouracil (5-FU). Compound 1846 (SEQ ID NO:34) was administered for 3 days prior to and for 4 days together with 5-FU, 50 mg/kg, i.p. daily. For reference, [Gly2]GLP-2 (SEQ ID NO:54) (405 nmol/kg) was given to one group of animals. Results from control animals treated with vehicle (PBS) or 5-FU alone are also shown. […] Values are means±SEM. * P<0.05, relative to 5-FU.
as §1, with “FIG. 7” for “FIG. 6”, “compound 1848” for “compound 1846”, “ID NO:36)” for “ID NO:34)”, “Compound 1848” for “Compound 1846”, “5-FU. # P<0.05, relative to [Gly2]GLP-2.” for “5-FU.”
FIG. 8 is a set of graphs showing the effect of compound 1855 (SEQ ID NO:43) (5, 15, 45, 135, and 405 nmol/kg, s.c., b.i.d.; n=6/dose group) on A) small intestine-to-body weight ratio (SI-BW), and B) small intestinal length (SI length) in mice treated with the cytostatic drug 5-Fluorouracil (5-FU). Compound 1855 (SEQ ID NO:43) was administered for 3 days prior to and for 4 days together with 5-FU, 50 mg/kg, i.p. daily. For reference, [Gly2]GLP-2 (405 nmol/kg) was given to one group of animals. Results from control animals treated with vehicle (PBS) or 5-FU alone are also shown. […] Values are means±SEM. * P<0.05, relative to 5-FU. # P<0.05, relative to [Gly2]GLP-2 (SEQ ID NO:54).
FIG. 9 is a set of graphs showing the effect of compound 1857 (SEQ ID NO:45) (5, 15, 45, 135, and 405 nmol/kg, s.c., b.i.d.; n=6/dose group) on A) small intestine-to-body weight ratio (SI-BW), and B) small intestinal length (SI length) in mice treated with the cytostatic drug 5-Fluorouracil (5-FU). Compound 1857 (SEQ ID NO:45) was administered for 3 days prior to and for 4 days together with 5-FU, 50 mg/kg, i.p. daily. For reference, [Gly2]GLP-2 (SEQ ID NO:54) (405 nmol/kg) was given to one group of animals. Results from control animals treated with vehicle (PBS) or 5-FU alone are also shown. […] Values are means±SEM. * P<0.05, relative to 5-FU. # P<0.05, relative to [Gly2]GLP-2 (SEQ ID NO:54).
The rapid rate of proliferation of the small intestinal stem cells, makes them a susceptible target to the cytotoxic effects of the chemotherapeutic agents used in anti-cancer therapies. Consequently, clinical use of the chemotherapeutic agent 5-fluorouracil (5-FU) is frequently associated with small intestinal injury (atrophy and diarrhea in cancer patients. We have previously shown that i.p. administration of 50 mg/kg 5-FU once daily for four days induces significant small intestinal atrophy in C57BL mice. The effect of the lead compounds, 1846 (SEQ ID NO:34), 1848 (SEQ ID NO:36), 1855 (SEQ ID NO:43), and 1857 (SEQ ID NO:45) on 5-FU-induced small intestinal atrophy was investigated in mice. 1846 (SEQ ID NO:34), 1848 (SEQ ID NO:36), 1855 (SEQ ID NO:43), or 1857 (SEQ ID NO:45) were administered twice daily for three days prior to 5-FU and for four days together with 5-FU administration. The lead compounds were each administered at five different doses (5, 15, 45, 135 and 405 nmol/kg) that have been previously shown to effectively stimulate small intestine growth in healthy mice (Example 9). […]

Row | Substance | Small intestine mass relative to [Gly2]GLP-2 [1] | Preferential growth of small intestine versus colon (small intestine-colon sensitivity) [1] | colon mass relative to body weight, % [Gly2]GLP-2 [1] | small intestine-colon sensitivity index, (SI/Colon)X/(SI/Colon)[Gly2]GLP-2 % [1] | 5-FU-induced small intestine atrophy (SI-BW, SI length) [2] | Efficacy on SI-length compared with 405 nmol/kg [Gly2]GLP-2 [2] | Efficacy on SI-BW compared with 405 nmol/kg [Gly2]GLP-2 [2] | Efficacy on 5-FU-induced atrophy compared with [Gly2]GLP-2 (figure legends) [2]
1 | [Gly2, Glu3, Leu10, Ser11, Ala16,24,28]hGLP-2(1-33)-NH2 [Compound 1857] | increased small intestine mass relative to [Gly2]GLP-2 | preferentially stimulating epithelial growth in the small intestine | 90 % [Gly2]GLP-2 | 130 % [Gly2]GLP-2 | prevented 5-FU-induced small intestine atrophy; also recorded: dose-dependently prevented 5-FU-induced SI atrophy and maintained SI-BW at levels similar to PBS controls | significantly more efficacious than 405 nmol/kg [Gly2]GLP-2 | significantly more efficacious than 405 nmol/kg [Gly2]GLP-2 | 
2 | [Gly2, Glu3, Ser8,11, Leu10, Ala16,24,28]hGLP-2(1-33)-(Lys)6-NH2 (HGEGSFSSELSTILDALAARDFIAWLIATKITDKKKKKK-NH2) [Compound 1846] | increased small intestine mass relative to [Gly2]GLP-2 | supplementary increase in the weight of the small intestine without significant effecting the weight of the colon; also recorded: preferentially stimulating epithelial growth in the small intestine | 102 % [Gly2]GLP-2 | 118 % [Gly2]GLP-2 | prevented 5-FU-induced small intestine atrophy; also recorded: dose-dependently prevented 5-FU-induced SI atrophy and maintained SI-BW at levels similar to PBS controls |  |  | 
3 | [Gly2, Glu3, Thr5, Ser8, Leu10, Ala11,16,24,28]hGLP-2(1-33)-(Lys)6-NH2 (HGEGTFSSELATILDALAARDFIAWLIATKITDKKKKKK-NH2) [Compound 1848] | increased small intestine mass relative to [Gly2]GLP-2 | supplementary increase in the weight of the small intestine without significant effecting the weight of the colon; also recorded: preferentially stimulating epithelial growth in the small intestine | 93 % [Gly2]GLP-2 | 117 % [Gly2]GLP-2 | prevented 5-FU-induced small intestine atrophy; also recorded: dose-dependently prevented 5-FU-induced SI atrophy and maintained SI-BW at levels similar to PBS controls | significantly more efficacious than 405 nmol/kg [Gly2]GLP-2 | significantly more efficacious than 405 nmol/kg [Gly2]GLP-2 | more efficacious than [Gly2]GLP-2
4 | [Gly2, Glu3, Thr5, Ser8, Leu10, Ala11,16,24,28]hGLP-2(1-33)-NH2 [Compound 1855] | increased small intestine mass relative to [Gly2]GLP-2 | supplementary increase in the weight of the small intestine without significant effecting the weight of the colon; also recorded: preferentially stimulating epithelial growth in the small intestine | 88 % [Gly2]GLP-2 | 120 % [Gly2]GLP-2 | prevented 5-FU-induced small intestine atrophy; also recorded: dose-dependently prevented 5-FU-induced SI atrophy and maintained SI-BW at levels similar to PBS controls |  | significantly more efficacious than 405 nmol/kg [Gly2]GLP-2 | more efficacious than the equimolar dose of [Gly2]GLP-2; also recorded: more efficacious than a high dose of [Gly2]GLP-2
